Data on 1 compound can be found in PMC12586182 (Frontiers in Oncology, 2025).

Each structure is given as a SMILES string.

For data set [1], the target named is biotinylated, inactive MEK1 (Homo sapiens, UniProt Q02750). Description: Surface plasmon resonance binding (Biacore 1S+). Particulars: SPR. Background: In SPR one partner is held on a chip, and binding of the other changes the refractive index at the surface.
In the next data set the target is T1, MEK1 (Homo sapiens, UniProt Q02750).
T1 construct: purchased Carna Biosciences, Inc. 07–41
T1 sequence (Q02750 whole entry): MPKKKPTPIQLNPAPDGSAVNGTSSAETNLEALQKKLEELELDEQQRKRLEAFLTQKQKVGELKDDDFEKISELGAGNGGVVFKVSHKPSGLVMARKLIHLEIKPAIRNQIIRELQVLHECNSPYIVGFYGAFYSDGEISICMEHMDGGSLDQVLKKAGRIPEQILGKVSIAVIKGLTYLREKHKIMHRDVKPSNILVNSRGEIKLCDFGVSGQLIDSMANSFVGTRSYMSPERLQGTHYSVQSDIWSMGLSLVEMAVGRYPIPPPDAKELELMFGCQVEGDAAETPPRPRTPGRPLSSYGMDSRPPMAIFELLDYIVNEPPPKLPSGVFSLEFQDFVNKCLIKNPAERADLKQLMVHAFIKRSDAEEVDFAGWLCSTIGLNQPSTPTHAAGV
Set-up: method as in Reiff et al. [15]. The following applies: 1 mmol/L ATP; ref Reiff et al. [15]; read-out: IC50 in an enzyme assay for MEK1; cited from earlier work.

Chain of biotinylated, inactive MEK1 (Q02750 whole entry): as above

For `O=C(c1ccc(Oc2ccccc2)cc1Cl)c1c[nH]c2ncnc(N[C@@H]3CC[C@@H](CO)OC3)c12` [nemtabrutinib], in data set [1], the “log (kd)” value is -3.49, the “log(ka)” value came out at 4.50 and the t1/2 worked out at 2140 s. Besides, the IC50 (usually the concentration at which inhibition is half-maximal) at MEK1 was 599 nM.
